We go through 8 compounds from patent US20240226115A1, “AXL INHIBITOR COMPOUNDS” (ARCUS BIOSCIENCES, INC., priority 2021, published 2024).

In this experiment the target is T1, recombinant human MER (Homo sapiens, UniProt Q12866).
T1 construct: purchased Invitrogen
T1 sequence (Q12866 21-999): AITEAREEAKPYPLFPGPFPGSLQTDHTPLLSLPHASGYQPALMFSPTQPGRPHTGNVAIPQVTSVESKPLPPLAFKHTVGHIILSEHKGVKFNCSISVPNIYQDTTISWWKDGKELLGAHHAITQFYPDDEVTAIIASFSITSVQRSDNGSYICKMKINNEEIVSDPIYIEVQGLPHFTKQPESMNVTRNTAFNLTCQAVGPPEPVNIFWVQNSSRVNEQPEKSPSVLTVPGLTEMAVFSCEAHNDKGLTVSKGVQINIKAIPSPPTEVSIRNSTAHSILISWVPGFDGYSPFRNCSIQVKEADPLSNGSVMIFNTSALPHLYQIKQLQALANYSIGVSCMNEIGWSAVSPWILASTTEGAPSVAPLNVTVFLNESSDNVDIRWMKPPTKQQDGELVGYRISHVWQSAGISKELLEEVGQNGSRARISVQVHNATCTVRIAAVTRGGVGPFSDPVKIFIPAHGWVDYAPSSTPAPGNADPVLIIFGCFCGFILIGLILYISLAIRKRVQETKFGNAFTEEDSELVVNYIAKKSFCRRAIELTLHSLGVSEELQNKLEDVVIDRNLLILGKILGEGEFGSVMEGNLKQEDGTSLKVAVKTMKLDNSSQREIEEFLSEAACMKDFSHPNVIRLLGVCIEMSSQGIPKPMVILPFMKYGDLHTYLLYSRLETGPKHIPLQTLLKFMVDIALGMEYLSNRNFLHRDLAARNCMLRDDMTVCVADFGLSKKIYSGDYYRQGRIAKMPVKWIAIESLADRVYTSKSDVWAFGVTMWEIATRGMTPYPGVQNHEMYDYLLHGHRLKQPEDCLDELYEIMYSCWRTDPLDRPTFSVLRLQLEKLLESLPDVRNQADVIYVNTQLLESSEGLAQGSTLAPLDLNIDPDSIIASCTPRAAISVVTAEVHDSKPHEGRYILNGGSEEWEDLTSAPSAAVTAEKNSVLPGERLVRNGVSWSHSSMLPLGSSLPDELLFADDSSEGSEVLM
Nature of the experiment: HTRF KinEASE-TK biochemical potency, MER. Conditions: 1 nM MER, 700 μM ATP. A digest of the protocol:
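Enzyme preincubated with compound 1 h at RT; final 5 nM AXL or 1 nM TYRO3/MER, 800 nM TK substrate-biotin, 700 μM ATP, HEPES pH 7.4, MgCl2, 1% DMSO, 2 h at RT. HTRF 665/620 ratio read after streptavidin-XL665/cryptate antibody detection; percent activity relative to DMSO and pre-stopped controls.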
For orientation: IC50 means the concentration that inhibits the measured activity by half. Take `CC(C)(O)C(=O)N1CCc2ccc(-c3cnc4[nH]nc(-c5ccc6c(c5)OCCNC6=O)c4c3)cc2CC1` [Example 19, 8-(5-(3-(2-Hydroxy-2-methylpropanoyl)-2,3,4,5-tetrahydro-1H-benzo[d]azepin-7-yl)-1H-pyrazolo[3,4-b]pyridin-3-yl)-3,4-dihydrobenzo[f][1,4]oxazepin-5(2H)-one]: the IC50 lay within 100 to 1000 nM.

Consider `O=C1NCCOc2cc(-c3n[nH]c4ncc(-c5ccc6c(c5)CCN(C5COC5)C6)cc34)ccc21` [Example 12, 8-(5-(2-(Oxetan-3-yl)-1,2,3,4-tetrahydroisoquinolin-6-yl)-1H-pyrazolo[3,4-b]pyridin-3-yl)-3,4-dihydrobenzo[f][1,4]oxazepin-5(2H)-one], for which the IC50 is 100 to 1000 nM.

Regarding `CC[C@@H]1CCCN1C1CCc2ccc(-c3cnc4[nH]nc(-c5ccc6c(c5)OCCNC6=O)c4c3)cc2CC1` (stereo partly drawn) [Example 25, 8-(5-{7-[(2R)-2-Ethylpyrrolidin-1-yl]-6,7,8,9-tetrahydro-5H-benzo[7]annulen-2-yl}-1H-pyrazolo[3,4-b]pyridin-3-yl)-2,3,4,5-tetrahydro-1,4-benzoxazepin-5-one], the IC50 was < 100 nM.

Turning to `O=C1NCCOc2cc(-c3n[nH]c4ncc(-c5ccc6c(c5)CCN(C5CC5)CC6)cc34)ccc21` [Example 20, 8-(5-(3-Cyclopropyl-2,3,4,5-tetrahydro-1H-benzo[d]azepin-7-yl)-1H-pyrazolo[3,4-b]pyridin-3-yl)-3,4-dihydrobenzo[f][1,4]oxazepin-5(2H)-one], the IC50 fell in the range of 100 to 1000 nM.

Take `COCCN1CCc2ccc(-c3cnc4[nH]nc(-c5ccc6c(c5)OCCNC6=O)c4c3)cc2CC1` [Example 15, 8-(5-(3-(2-Methoxyethyl)-2,3,4,5-tetrahydro-1H-benzo[d]azepin-7-yl)-1H-pyrazolo[3,4-b]pyridin-3-yl)-3,4-dihydrobenzo[f][1,4]oxazepin-5(2H)-one]: the IC50 is < 100 nM.

`C[C@@H]1CCCN1C1(C)CCc2ccc(-c3cnc4[nH]nc(-c5ccc6c(c5)OCCNC6=O)c4c3)cc2CC1` (stereo partly drawn) [Example 23, 8-(5-{7-Methyl-7-[(2R)-2-methylpyrrolidin-1-yl]-6,7,8,9-tetrahydro-5H-benzo[7]annulen-2-yl}-1H-pyrazolo[3,4-b]pyridin-3-yl)-2,3,4,5-tetrahydro-1,4-benzoxazepin-5-one]: the IC50 is < 100 nM.

For the compound `C[C@@H]1CCCN1C1CCc2cc(-c3cnc4[nH]nc(-c5ccc6c(c5)OCCNC6=O)c4c3)cc(Cl)c2CC1` (stereo partly drawn) [Example 65, 8-(5-{4-Chloro-7-[(2R)-2-methylpyrrolidin-1-yl]-6,7,8,9-tetrahydro-5H-benzo[7]annulen-2-yl}-1H-pyrazolo[3,4-b]pyridin-3-yl)-2,3,4,5-tetrahydro-1,4-benzoxazepin-5-one], the IC50 is < 100 nM.

Take `O=C1NCCOc2cc(-c3n[nH]c4ncc(-c5ccc6c(c5)CCNC6)cc34)ccc21` [Example 54, 8-(5-(1,2,3,4-Tetrahydroisoquinolin-6-yl)-1H-pyrazolo[3,4-b]pyridin-3-yl)-3,4-dihydrobenzo[f][1,4]oxazepin-5(2H)-one]: the IC50 lay within 100 to 1000 nM.
